Measurements taken from patent US20240415787A1, “COMPOSITION FOR TREATING OR PREVENTING OBESITY OR OBESITY-ASSOCIATED LIVER DISEASE, COMPRISING VERBENONE DERIVATIVES” (SHIN POONG PHARMACEUTICAL CO., LTD., priority 2021, published 2024).

Key:
[1] = Blood analysis (serum AST, ALT, total cholesterol); type: in vivo, mice
Excerpt: (§1) Male C57BL/6 mice (6 weeks old, 20 g body weight) were purchased from Orient-Bio (Seongnam, Korea). All mice were maintained in a 12-hr light/dark cycle and fed ad libitum. To minimize environmental differences, mice were allowed 2 weeks for acclimation before the start of experiments. For diet-induced NAFLD experiments, mice were fed either an HFD (60% of kcal in fat, D12492, Research Diets, NJ, USA) or a normal chow diet (ND) for 20 weeks. All experimental protocols and procedures were approved by the Ethics Committee and the Institutional Animal Care and Use Committee of Korea University College of Medicine (Approval No. KOREA-2019-0026).
(§2) The mice were subdivided into vehicle and SP-1154 (50 mg/kg as SP-8356) groups. SP-1154 was administrated to the mice via tab water and the dose of drug was determined by daily water consumption (6 mL/day) and body weights, which were measured every week.
Blood samples were collected immediately before sacrifice. The levels of AST (aspartate aminotransferase), ALT (alanine aminotransferase), total cholesterol, and triglyceride in serum were measured using a FUJI DRI-Chemiclinical Chemistry Analyzer (FUJI DRI-CHEM 4000i, Fuji Film, Tokyo, Japan).

[2] = Insulin tolerance test (ITT); type: in vivo; conditions: HFD-induced mice; vs HFD
Excerpt: as §1, §2
(§3) For GTT, glucose (2 g/kg body weight) was orally administered to mice after overnight fasting, and blood was drawn to measure glucose concentrations at indicated times thereafter. For ITT, insulin (1.5 insulin units/kg body weight) was intraperitoneally injected into mice after fasting for 4 hours, and blood was drawn to measure blood glucose at indicated times. Insulin concentrations were measured at each indicated time in serum collected from the mice subjected to GTT.

[3] = system: HFD-induced liver steatosis; test: CT measurement of liver density (Hounsfield units); type: in vivo, mice; conditions: measured in HU, vs HFD
Excerpt: as §1, §2
^18F-FDG PET/CT was performed using a dedicated small animal PET/CT scanner (eXplore Vista DR PET/CT, GE Healthcare, Milwaukee, WI, USA). Mice were not fasted before taking examination and anesthetized with 2% isoflurane in oxygen (1 L/min) during the examination. PET/CT image acquisition was started 40 min after the injection of 18.5 MBq/0.1 mL of ^18F-FDG via the tail vein. Static PET images were acquired for 20 min, followed by CT scan (40 kV, 250 uA). […]

GLUT1 = GLUT1 expression in VAT (immunostaining, qRT-PCR); type: in vivo, mice; conditions: 20 weeks of HFD, vs HFD
Excerpt: as §1, §2
(§4) Tissues were incubated with anti-CD68 (ab 125212, Abcam, Cambridge, MA, USA), anti-glucose transporter 1 (GLUT1) (ab652, Abcam, Cambridge, MA, USA), and anti-GLUT4 (ab654, Abcam, MA, USA). Alexa Fluor 594 (Invitrogen, Carlsbad, CA, USA) was used as secondary antibody. All fluorescence images were acquired with Zeiss Axio Scan.Z1 (Carl Zeiss, Jena, Germany). […]

[4] = system: macrophage infiltration into VAT; test: Flow cytometry of F4/80+CD11b+ macrophages in VAT; type: in vivo, mice; conditions: vs HFD
Excerpt: as §1, §2
Cells were suspended in 0.1 mL of fluorescence-activated cell sorting (FACS) buffer (phosphate-buffered saline; PBS with 5% fetal bovine serum; FBS) and incubated with Fc blocker (BD Bioscience, San Jose, CA, USA) at room temperature for 10 min, followed by an additional 30 min with anti-CD45 APC-Cy7, anti-F4/80 PE, and anti-CD11b-PerCP-Cy5.5 (Biolegend, San Diego, CA, USA) antibodies according to the manufacturer's recommendation. […]

C-reactive protein (CRP) = test: ELISA of serum C-reactive protein; type: in vivo, mice
Excerpt: as §1, §2
Serum concentration of C-reactive protein (CRP) was determined using a commercially available ELISA kit (ab157712, Abcam, Cambridge, MA, USA) according to the manufacturer's instruction.

VAT inflammation = test: 18F-FDG PET/CT imaging of VAT metabolic activity (SUVmax); type: in vivo, mice
Excerpt: as §1
The mice were subdivided into vehicle and SP-1154 (50 mg/kg as SP-8356) groups. SP-1154 was administrated to the mice via tab water and the dose of drug was determined by daily water consumption (6 mL/day) and body weights, which were measured every week. […]
Images were analyzed by two experienced nuclear medicine physicians (KP and HWK) using commercially available software (Syngo. via, Siemens Healthcare, Erlangen, Germany). […] For the evaluation of VAT metabolic activity, region on interest (ROI) was placed along the intra-abdominal fat on each slice and the maximum standardized uptake value (SUVmax) was measured, as previously described. […]

[5] = system: phosphorylation of Smad2/3; test: Western blot of Smad2/3 phosphorylation in VAT of HFD-induced mice; type: in vivo; conditions: 50 mg/kg as SP-8356 via water, 20 weeks, vs HFD
Excerpt: as §1, §2
VAT was lysed in RIPA buffer (Thermo Fisher Scientific, Waltham, MA, USA) with protease inhibitor (GeneDepot, Barker, TX, USA). The protein concentration was quantified using the BCA protein assay kit (Thermo Fisher Scientific, Waltham, MA, USA). […] Protein bands were detected using the ECL assay kit (GE Healthcare, Chicago, IL, USA).

GLUT4 = GLUT4 expression in VAT (immunostaining, qRT-PCR); type: in vivo, mice; conditions: 20 weeks of HFD, vs HFD
Excerpt: as §1, §2, §4

[6] = Solubility in saline / water; type: physicochemical
[7] = Glucose tolerance test (GTT); type: in vivo; conditions: HFD-induced mice; vs HFD
Excerpt: as §1, §2, §3

CD68 = CD68 immunohistochemistry of VAT; type: in vivo, mice; conditions: IHC on harvested VAT; vs HFD
Excerpt: as §1, §2
(§5) Mice were sacrificed after 20 weeks of drug administration by using the CO2 chamber. […] Adipocyte surface area of a minimum of 300 cells per group was measured using ImageJ software (version 1.45 s, Bethesda, MD, USA), as previously described. Hepatic steatosis was assessed using three-scale scoring system based on H&E-stained liver: score 1 (mild, 5-33%); score 2 (moderate, 34-66%); score 3 (severe, >66%). […]

[8] = Body weight and food intake during 20-week HFD study; type: in vivo; conditions: HFD-induced mice, 50 mg/kg as SP-8356, 20 weeks; vs HFD
Excerpt: as §1, §2

adipocytes in VAT = test: Histopathology of VAT: adipocyte surface area; type: in vivo, mice; conditions: 20 weeks of HFD, vs HFD
Excerpt: as §1, §2, §5

[9] = system: HFD-induced liver steatosis; test: Liver weight and liver steatosis score of harvested liver; type: in vivo, mice; conditions: vs HFD
Excerpt: as §1, §2, §5

TGF-βR1 = test: qRT-PCR of TGF-βR1 mRNA in VAT of HFD-induced mice; type: in vivo; conditions: HFD vs HFD with SP-1154, 20 weeks
Excerpt: as §1, §2
(§6) Total RNA was extracted from VAT samples using the Trizol reagent (Invitrogen, Carlsbad, CA, USA) and the generation of cDNA was performed using the reverse transcription reaction kit (iScript cDNA synthesis kit, Bio-Rad, Hercules, CA, USA). Gene expression was assessed using SYBR Green mixture (iQTM SYBR Green Supermix, Bio-Rad, Hercules, CA, USA) and an iCycler PCR thermocycler (Bio-Rad, Hercules, CA, USA). […]

TGF-β1 = test: qRT-PCR of TGF-β1 mRNA in VAT of HFD-induced mice; type: in vivo; conditions: HFD vs HFD with SP-1154, 20 weeks
Excerpt: as §1, §2, §6

[10] = Conversion of prodrug to SP-8356
[11] = Efficacy of suspension versus soluble prodrug form; conditions: suspension in saline
[12] = normal mice vs SP-1154-treated mice

Structure (SMILES): COc1cc(/C=C/C2=CC(=O)[C@H]3C[C@@H]2C3(C)C)cc(OC(=O)[C@@H](N)C(C)C)c1OC(=O)[C@@H](N)C(C)C.Cl.Cl [SP-1154, (2S,2'S)-5-((E)-2-((1R,5S)-6,6-dimethyl-4-oxobicyclo[3.1.1]hept-2-en-2-yl)vinyl)-3-methoxy-1,2-phenylene bis(2-amino-3-methylbutanoate)-dihydrochloride]
- serum total cholesterol ([1]; HFD vs HFD with SP-1154): no significant difference
- level of ALT ([1]; serum, HFD-induced mice): improved
- level of AST ([1]; serum, HFD-induced mice): improved
- insulin resistance (ITT) [2]: significantly improved
- liver density [3]: significantly enhanced
- GLUT1 expression (GLUT1): decreased
- macrophage infiltration into VAT [4]: significantly prevented
- CRP levels, difference to normal mice (C-reactive protein (CRP); [12]): no significant difference
- levels of CRP (C-reactive protein (CRP); serum, HFD-induced mice, vs HFD): significantly suppressed
- VAT SUVmax (VAT inflammation; 18F-FDG PET/CT after 20 weeks of HFD, vs HFD): significantly reduced
- VAT SUVmax, difference to normal mice (VAT inflammation; [12]): no significant difference
- phosphorylation of Smad2/3 in VAT [5]: inhibited
- GLUT4 expression (GLUT4): increased
- water solubility ([6]; water): high
- glucose homeostasis (GTT) [7]: significantly improved
- expression of CD68 in VAT (CD68): suppressed
- HFD-induced body weight gain [8]: significantly attenuated
- adipocyte size (adipocytes in VAT): significant reduction
- liver steatosis score ([9]; H&E-stained liver, three-scale scoring): significantly reduced
- liver weight ([9]; harvested liver): significantly reduced
- mRNA expression level of TGF-βR1 in VAT (TGF-βR1): no significant difference
- mRNA expression level of TGF-β1 in VAT (TGF-β1): no significant difference
- conversion of prodrug to SP-8356 [10]: converted to SP-8356 very quickly

Structure (SMILES): COc1cc(C=CC2=CC(=O)[C@H]3C[C@@H]2C3(C)C)cc(O)c1O [SP-8356, (1S,5R)-4-(3,4-dihydroxy-5-methoxystyryl)-6,6-dimethylbicyclo[3.1.1]hept-3-en-2-one]
- efficacy when used as a suspension [11]: weak but significant
- solubility in saline ([6]; saline): does not dissolve well in saline
